The record followed here is article PMC6457190, “Tridecaptin-inspired antimicrobial peptides with activity against multidrug-resistant Gram-negative bacteria” (MedChemComm, 2019).

Where a SMILES comes first, the peptide text is derived from it. [ ]: non-standard residue; d: D form. The star is where a group is joined. dOrn = NCCC[C@@H](N)C(=O)O; dDab = NCC[C@@H](N)C(=O)O; Octanoyl = CCCCCCCC(=O)*; Orn = NCCC[C@H](N)C(=O)O; Dab = NCC[C@H](N)C(=O)O

For one series, the system named is A. baumannii. The format is cell-based, Acinetobacter baumannii. To be noted: 18 h. How it is done: (§1) IV. Antimicrobial testing
(§2) All minimum inhibitory concentrations (MICs) were determined according to Clinical and Standards Laboratory Institute (CLSI) guidelines. Briefly, peptides were dissolved in Muller-Hinton Broth (MHB) and serial dilutions made across a 96 well plate. Each well was inoculated with a suspension of the required bacterial strain to reach a final inoculum of 5 x 10^5 colony forming units per mL. The MIC was taken as the lowest concentration with no visible growth after 18 hours.
(§3) V. Additional information on multidrug resistant strains
(§4) Organism Resistant Susceptible
Acinetobacter baumannii Cefotaxime Imipenem
Isolated from sewage contaminated Tetracycline Colistin water (Tripoli, Lebanon). Ofloxacin Tobramycin
(§5) Acinetobacter baumannii ACM 11 Ceftazimide
(§6) Acinetobacter baumannii ACM 29 Ceftazimide
(§7) Isolated from peritoneum of 3-year- Imipenem

The test system of a further series is A. baumannii ACM 11. The format is cell-based, Acinetobacter baumannii. To be noted: ACM 11, 18 h. How it is done: as §1, §2, §3, §4, §5
In series [1] the test system is K. pneumoniae and E. cloacae strains. The format is cell-based, Klebsiella pneumoniae, Enterobacter cloacae. To be noted: 18 h. As for the experimental part:
The first amino acid substitution we explored was replacement of D-allo-Ile12 with D-Val, which occurs in natural TriA2 variants. Fmoc-D-Val is ∼30 times less expensive than Fmoc-D-allo-Ile (according to Fluorochem pricing). […] The minimum inhibitory concentrations (MICs) of Oct-TriA1 against K. pneumoniae and E. cloacae strains were typically 6.25 μg mL^–1 but […] against carbapenemase-producing A. baumannii strains (25 μg mL^–1).
(§8) MilliQ water and solvent B = 0.1 % TFA in ACN. A gradient method was employed, starting from 20 % B and 80 % A for 2 min, ramping up to 95 % B over 18 min, ramping down to 20 % B over 0.1 min before staying at 20 % B for 3.9 min. High resolution mass spectrometry (HRMS) spectra of all peptides were recorded by Analytical Services and Environmental Projects (ASEP) at Queen’s University Belfast on a Waters LCT Premier ToF mass spectrometer using the electrospray ionisation (ESI) technique.
as §1
All minimum inhibitory concentrations (MICs) were determined according to Clinical and Standards Laboratory Institute (CLSI) guidelines. Briefly, peptides were dissolved in Muller-Hinton Broth (MHB) and serial dilutions made across a 96 well plate. Each well was inoculated with a suspension of the required bacterial strain to reach a final inoculum of 5 x 10^5 colony forming units per mL. […]

In a further series the test system is P. pseudoalcaligenes. The format is cell-based, Pseudomonas pseudoalcaligenes. To be noted: 18 h. How it is done: as §1, §2
The test system of the next series is K. pneumoniae IMP 216. Format: cell-based, Klebsiella pneumoniae. To be noted: IMP 216, 18 h. As for the experimental part: as §1, §2
A further series deals with K. pneumoniae. Format: cell-based, Klebsiella pneumoniae. To be noted: 18 h. As for the experimental part: as §1, §2
For a further series, the system named is K. pneumoniae IMP 485. The format is cell-based, Klebsiella pneumoniae. To be noted: IMP 485, 18 h. As for the experimental part:
as §1, §2

A further series has as its system K. pneumoniae IMP 204. Format: cell-based, Klebsiella pneumoniae. To be noted: IMP 204, 18 h. How it is done:
as §1, §2

A further series concerns K. pneumoniae IMP 170. Format: cell-based, Klebsiella pneumoniae. To be noted: IMP 170, 18 h. How it is done:
as §1, §2

In the next series the test system is K. pneumoniae IMP 177. Format: cell-based, Klebsiella pneumoniae. To be noted: IMP 177, 18 h. As for the experimental part:
as §1, §2

The test system of another series is E. cloacae. The format is cell-based, Enterobacter cloacae. To be noted: 18 h. As for the experimental part: as §1, §2
A further series has as its system Equine erythrocytes. The format is cell-based, horse. To be noted: red cells of equine, 100 μg mL^–1. How it is done: Having assessed the antimicrobial activity of peptides 1–8 we next proceeded to assess their haemolytic activities (Table 2). Haemolytic activity was tested at 100 μg mL^–1, as the concentration required for haemolysis should be higher than antimicrobial MICs. Equine erythrocytes were exposed to peptides 1–8 and incubated for 30 min at 37 °C (Table 2). […] The low haemolytic activity observed for Oct-TriA2 (2,8-D-Lys, 7-Lys) (8) is consistent with its poor antimicrobial activity. […]
VI. Haemolytic activity assays
A 96-well plate was first prepared to contain phosphate-buffered saline (PBS) solutions (100 μL) of tridecaptin analogues 1 – 8 (200 μg/mL) (experiments run in triplicate). 0.1 % Triton X-100 (100 μL) was used as a positive control, while PBS (100 μL) was used as a blank. After the plate had been prepared, defibrinated horse blood (0.5 mL, VWR International) was diluted with phosphate-buffered saline (9.5 mL) and gently shaken. The resulting mixture was centrifuged (5600 rpm, 5 min) using a Thermo Scientific Heraeus Labofuge 200 centrifuge and the supernatant carefully removed. This process was repeated three more times to remove any free hemoglobin. The resulting erythrocyte pellet was gently resuspended in 9.5 mL of PBS. Aliquots of the resulting mixture (100 μL) were added to the appropriate wells on the 96-well plate using a multichannel pipette and the plate incubated at 37 °C for 30 min. The samples were gently mixed by pipetting, and 20 μL of each was added to 200 μL of PBS. Once again, the samples were gently mixed. The diluted samples were then centrifuged (7000 rpm, 5 min) using a SciSpin MINI Microfuge. Supernatant (150 μL) from each sample was added to a new 96-well plate. The absorbance of each sample was individually measured at 415 nm using a Denovix DS-11 FX+ Spectrophotometer. Percent hemolysis of the peptides was calculated relative to Triton X- 100, while the PBS negative control was used as a blank.

The subject of another series is A. baumannii ACM 29. The format is cell-based, Acinetobacter baumannii. To be noted: ACM 29, 18 h. How it is done:
as §1, §2
V. Additional information on multidrug resistant strains […]
Organism Resistant Susceptible […]
as §6, §7

For the next series, the system named is A. baumannii strains. The experiment in a line: MIC. To be noted: against the A. baumannii strains. Format: cell-based, Acinetobacter baumannii.
Source text: (§9) We next proceeded to replace the D-Dab and L-Dab residues, found at positions 2 and 8, and 7 respectively. […] It was previously shown that D-Dab8 is essential for antimicrobial activity,[18] and an experimentally derived model of Oct-TriA1 bound to its cellular receptor, the peptidoglycan intermediate lipid II, supports this observation.[12] Therefore we first prepared peptides in which only the amino acids at positions 2 and 7 were substituted with Lys or Orn (D/L configuration retained). […] Finally, the Lys/Orn substitutions at the 2, 7 and 8 positions were also incorporated into TriA2 analogues, yielding Oct-TriA2 (2,8-D-Orn, 7-Orn) (7) and Oct-TriA2 (2,8-D-Lys, 7-Lys) (8).
as §8, §1
(§10) All minimum inhibitory concentrations (MICs) were determined according to Clinical and Standards Laboratory Institute (CLSI) guidelines. […]

The subject of the next series is K. pneumoniae strains. The experiment in a line: MIC. To be noted: against the K. pneumoniae strains. Format: cell-based, Klebsiella pneumoniae.
Source text: as §9, §8, §1, §10

For series [2], the system named is panel of Gram-negative bacteria. The series can be described thus: MIC, summary over the panel of strains. Format: cell-based. To be noted: against most strains tested.
Source text: Previous studies have shown that the tridecaptins have strong activity against clinically relevant Gram-negative strains.[8],[14] This includes A. baumannii and Enterobacteriaceae such as Klebsiella pneumoniae and Enterobacter spp., however P. aeruginosa is less susceptible. The World Health Organization (WHO) currently lists carbapenemase-producing strains of these Gram-negative bacteria as critical priority pathogens. We therefore decided to synthesize a library of novel tridecaptin analogues containing conservative substitutions at positions 2, 7, 8 and/or 12, and evaluate their activity against a panel of these strains (Table 1). This panel of Gram-negative bacteria contains environmental samples isolated from sewage contaminated water in Lebanon, as well as several strains isolated from patients at clinical settings. […]
MilliQ water and solvent B = 0.1 % TFA in ACN. […] High resolution mass spectrometry (HRMS) spectra of all peptides were recorded by Analytical Services and Environmental Projects (ASEP) at Queen’s University Belfast on a Waters LCT Premier ToF mass spectrometer using the electrospray ionisation (ESI) technique. […]
as §10

`CCCCCCCC(=O)N[C@@H](C(=O)N[C@H](CCN)C(=O)NCC(=O)N[C@H](CO)C(=O)N[C@H](Cc1c[nH]c2ccccc12)C(=O)N[C@@H](CO)C(=O)N[C@@H](CCN)C(=O)N[C@H](CCN)C(=O)N[C@@H](Cc1ccccc1)C(=O)N[C@@H](CCC(=O)O)C(=O)N[C@H](C(=O)N[C@@H](C(=O)N[C@@H](C)C(=O)O)[C@@H](C)CC)C(C)C)C(C)C` [Peptide 1, Oct-TriA1, reference compound]: the “Peptide MIC” value with A. baumannii was determined as 12.5 μg mL^–1; in the series on A. baumannii ACM 11, 25 μg mL^–1; with P. pseudoalcaligenes it was 50 μg mL^–1; with K. pneumoniae IMP 216, 6.25 μg mL^–1; in the series with K. pneumoniae it was 6.25 μg mL^–1; in the series on K. pneumoniae IMP 485, 6.25 μg mL^–1. Besides, the “Peptide MIC” value in the series on K. pneumoniae IMP 204 stood at 12.5 μg mL^–1; with K. pneumoniae IMP 170, 6.25 μg mL^–1; in the series with K. pneumoniae IMP 177, 6.25 μg mL^–1; in the series with E. cloacae it was 3.13 μg mL^–1; in the series with A. baumannii ACM 29, 25 μg mL^–1. Further, the “minimum inhibitory concentrations (MICs), typical value” in [1] is reported as around 6.25 μg mL^–1. For the same molecule, in the series with Equine erythrocytes, the “% haemolysis” value stood at 89.6%.

Turning to `CCCCCCCC(=O)N[C@@H](C(=O)N[C@H](CCCN)C(=O)NCC(=O)N[C@H](CO)C(=O)N[C@H](Cc1c[nH]c2ccccc12)C(=O)N[C@@H](CO)C(=O)N[C@@H](CCCN)C(=O)N[C@H](CCCN)C(=O)N[C@@H](Cc1ccccc1)C(=O)N[C@@H](CCC(=O)O)C(=O)N[C@H](C(=O)N[C@@H](C(=O)N[C@@H](C)C(=O)O)C(C)C)C(C)C)C(C)C` [Peptide 7, Oct-TriA2 (2,8-D-Orn, 7-Orn)] (Octanoyl-[dV][dOrn]G[dS][dW]S[Orn][dOrn]FEV[dV]A-OH), the “Peptide MIC” value in the series on A. baumannii stood at 25 μg mL^–1; with A. baumannii ACM 11 it was 25 μg mL^–1; in the series with P. pseudoalcaligenes it was 6.25 μg mL^–1; with K. pneumoniae IMP 216, 12.5 μg mL^–1; with K. pneumoniae, 50 μg mL^–1; in the series on K. pneumoniae IMP 485, 12.5 μg mL^–1. The “Peptide MIC” value is on record as 12.5 μg mL^–1 with K. pneumoniae IMP 204; 25 μg mL^–1 with K. pneumoniae IMP 170; 12.5 μg mL^–1 with K. pneumoniae IMP 177; 12.5 μg mL^–1 in the series with E. cloacae; 50 μg mL^–1 with A. baumannii ACM 29. Moreover, the “% haemolysis” value with Equine erythrocytes was determined as 39.8%. The “antimicrobial activity relative to Oct-TriA1” value with A. baumannii strains is “comparable activity”; in the series with K. pneumoniae strains, “two- to four-fold less active”.

Regarding `CCCCCCCC(=O)N[C@@H](C(=O)N[C@H](CCN)C(=O)NCC(=O)N[C@H](CO)C(=O)N[C@H](Cc1c[nH]c2ccccc12)C(=O)N[C@@H](CO)C(=O)N[C@@H](CCN)C(=O)N[C@H](CCN)C(=O)N[C@@H](Cc1ccccc1)C(=O)N[C@@H](CCC(=O)O)C(=O)N[C@H](C(=O)N[C@@H](C(=O)N[C@@H](C)C(=O)O)C(C)C)C(C)C)C(C)C` [Peptide 2, Oct-TriA2] (Octanoyl-[dV][dDab]G[dS][dW]S[Dab][dDab]FEV[dV]A-OH), the “Peptide MIC” value in the series on A. baumannii was 25 μg mL^–1; in the series with A. baumannii ACM 11 it was 100 μg mL^–1; in the series with P. pseudoalcaligenes it was 50 μg mL^–1; in the series with K. pneumoniae IMP 216, 12.5 μg mL^–1; in the series on K. pneumoniae it was 12.5 μg mL^–1; in the series with K. pneumoniae IMP 485, 12.5 μg mL^–1. Also, the “Peptide MIC” value in the series on K. pneumoniae IMP 204 was determined as 12.5 μg mL^–1; in the series with K. pneumoniae IMP 170, 12.5 μg mL^–1; in the series on K. pneumoniae IMP 177 it was 25 μg mL^–1; with E. cloacae, 6.25 μg mL^–1; in the series with A. baumannii ACM 29, 50 μg mL^–1. Also, the “antimicrobial activity relative to Oct-TriA1 (1)” value in series [2] is “two- to four-fold less active”. For the same molecule, the “% haemolysis” value in the series on Equine erythrocytes came out at 52.1%.
